This is an account of results in article PMC7046841, “Triterpenoids from Ainsliaea latifolia and Their Cyclooxyenase-2 (COX-2) Inhibitory Activities” (Natural Products and Bioprospecting, 2019).

Where only a bound is given, the exact number is not on record here.

A word on the IC50: it is the concentration at which inhibition is half-maximal.

The assay deals with T1, human recombinant COX-2 (Homo sapiens, UniProt P35354).
T1 construct: purchased Cayman
T1 sequence (P35354 18-604): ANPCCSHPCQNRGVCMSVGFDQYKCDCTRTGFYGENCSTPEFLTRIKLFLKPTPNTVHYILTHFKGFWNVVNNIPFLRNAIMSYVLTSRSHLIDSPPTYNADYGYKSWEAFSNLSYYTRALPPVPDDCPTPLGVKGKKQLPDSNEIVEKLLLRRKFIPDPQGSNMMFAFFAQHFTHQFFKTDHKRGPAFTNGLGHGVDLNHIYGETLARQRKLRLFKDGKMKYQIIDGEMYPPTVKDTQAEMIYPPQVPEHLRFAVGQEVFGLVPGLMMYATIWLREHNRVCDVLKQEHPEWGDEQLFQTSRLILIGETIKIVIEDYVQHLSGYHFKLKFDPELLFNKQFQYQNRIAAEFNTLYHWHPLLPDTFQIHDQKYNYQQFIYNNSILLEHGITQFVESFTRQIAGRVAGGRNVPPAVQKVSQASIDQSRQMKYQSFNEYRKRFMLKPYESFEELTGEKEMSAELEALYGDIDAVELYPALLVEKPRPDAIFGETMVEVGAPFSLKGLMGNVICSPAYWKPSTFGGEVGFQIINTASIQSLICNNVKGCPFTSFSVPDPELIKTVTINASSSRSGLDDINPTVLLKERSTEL
As to the kind of experiment: Colorimetric COX Inhibitor Screening Assay (Cayman), COX-2 inhibitory effect. Format: biochemical. The protocol:
Cayman’s Colorimetric COX Inhibitor Screening Assay provides a convenient method for human recombinant COX-2 to screen isozyme-specific inhibitors. The assay measures the peroxidase component of COXs. The peroxidase activity is assayed colorimetrically by monitoring the appearance of oxidized N′,N,N,N′-tetramethyl-p-phenylenediamine (TMPD) at 590 nm. The COX-2 assay consisted of a 200 µL reaction mixture containing 150 µL assay buffer, 10 µL Heme, 10 µL COX-2, 20 µL Colorimetric Substrate, and 10 µL test solution (1, 5, 10, 20, 80, 100 µmol·L^−1). The reactions were initiated by quickly adding 10 µL Arachidonic Acid, then incubating for 2 min at room temperature.
For the compound `CC(C=CC(O)C(C)(C)O)C1CCC2(C)C3CC=C4C(CCC(O)C4(C)C)C3(C)CCC12C` (stereo not drawn) [Compound 1, cucurbita-5, 22-diene-3β, 24S, 25-triol], the IC50 is greater than 100 µM.
The same measure for `C[C@H](CC[C@H](O)C(C)(C)O)[C@H]1CC[C@@]2(C)[C@@H]3CC=C4[C@@H](CC[C@H](O)C4(C)C)[C@]3(C)CC[C@]12C` [Compound 2, cucurbita-5-ene-3β,24S,25-triol]: 18.9 ± 1.65 µM.
Take `C[C@H](C/C=C/C(C)(C)O)[C@H]1CC[C@@]2(C)[C@@H]3C[C@H]4O[C@@]45[C@@H](CC[C@H](O)C5(C)C)[C@]3(C)CC[C@]12C` [Compound 3, cucurbita-5β,6β-epoxy-23-ene-3β, 25-diol]: the IC50 is greater than 100 µM.
For the compound `C[C@H](CCCO)[C@H]1CC[C@@]2(C)[C@@H]3CC=C4[C@@H](CC[C@H](O)C4(C)C)[C@]3(C)CC[C@]12C` [Compound 4, 25,26,27-trinorcucurbita-5-ene-3β,24-diol], the IC50 was 3.98 ± 0.32 µM.
For the compound `C[C@H](CCC(=O)O)[C@H]1CC[C@@]2(C)[C@@H]3CC=C4[C@@H](CC[C@H](O)C4(C)C)[C@]3(C)CC[C@]12C` [Compound 5, 25,26,27-trinorcucurbita-5-ene-3β-ol-24-acid], the half-maximal inhibitory concentration (IC50) was determined as 19.5 ± 1.87 µM.
Turning to `C[C@H](CCO)[C@H]1CC[C@@]2(C)[C@@H]3CC=C4[C@@H](CC[C@H](O)C4(C)C)[C@]3(C)CC[C@]12C` [Compound 6, 24,25,26,27-tetranorcucurbita-5-ene-3β,23-diol], the IC50 was 31 ± 2.64 µM.
For `CC(CC=CC(C)(C)O)C1CCC2(C)C3CCC4(C)C(C)C(=O)CCC4C3(C)CCC12C` (stereo not drawn) [Compound 7, 18R-D:A-friedoeuph-20-ene-22-ol-3-one] the value was greater than 100 µM; for `C=C(C)[C@@H](O)CC[C@@H](C)[C@@H]1CC[C@]2(C)[C@H]3CC[C@@]4(C)[C@@H](CCC(=O)[C@@H]4C)[C@]3(C)CC[C@@]12C` [Compound 8], greater than 100 µM; for `C[C@H](C/C=C/C(C)(C)O)[C@H]1CC[C@@]2(C)[C@@H]3CC=C4[C@@H](CC[C@H](O)C4(C)C)[C@]3(C)CC[C@]12C` [Compound 9, cucurbita-5,23-diene-3β,25-diol], greater than 100 µM.
